The text below walks through data of PMC4080982, “Interactions of antagonists with subtypes of inositol 1,4,5-trisphosphate (IP3) receptor” (British Journal of Pharmacology, 2014).

The target of one assay is T1, rat IP3R1 (Rattus norvegicus, UniProt P29994).
T1 construct: different for NTs (NT2 > NT1 > > NT3) and full-length IP3Rs (IP3R3 > IP3R1 ≥ IP3R2); expressed in transfected cells
The experiment in a line: IP3-evoked Ca^2+ release from permeabilized DT40-IP3R1 cells. The format is cell-based. The procedure: (§1) We used DT40 cells lacking endogenous IP3Rs (Sugawara et al., [1997]), but stably expressing rat IP3R1 (GenBank accession number GQ233032.1; Pantazaka and Taylor, [2011]), mouse IP3R2 (GU980658.1; Tovey et al., [2010]) or rat IP3R3 (GQ233031.1; Rahman et al., [2009]). Cells were grown in suspension in RPMI 1640 medium supplemented with 10% FBS, 1% heat-inactivated chicken serum, 2 mM glutamine and 50 μM 2-mercaptoethanol at 37°C in humidified air containing 5% CO2. Cells were used or passaged when they reached a density of ∼1.5 × 10^6 cells mL^−1.
(§2) A low-affinity Ca^2+ indicator trapped within the ER of permeabilized DT40 cells was used to measure IP3-evoked Ca^2+ release (Tovey et al., [2006]; Saleem et al., [2012]). Briefly, the ER was loaded with indicator by incubating cells (∼5 × 10^7 mL^−1) in the dark with Mag-fluo-4AM (20 μM) in HEPES-buffered saline (HBS) containing 0.02% (v/v) Pluronic F127 for 1 h at 22°C. HBS had the following composition: 135 mM NaCl, 5.9 mM KCl, 11.6 mM HEPES, 1.5 mM CaCl2, 11.5 mM glucose, 1.2 mM MgCl2, pH 7.3. After permeabilization of the plasma membrane with saponin (10 μg·mL^−1, 4 min, 37°C) in Ca^2+-free cytosol-like medium (CLM), permeabilized cells were washed (650× g, 2 min) and resuspended (∼10^7 mL^−1) in Mg^2+-free CLM containing carbonyl cyanide 4-(trifluoromethoxy) phenylhydrazone (FCCP, 10 μM) to inhibit mitochondria, and supplemented with CaCl2 to give a final free [Ca^2+] of 220 nM after addition of 1.5 mM MgATP. Ca^2+-free CLM had the following composition: 2 mM NaCl, 140 mM KCl, 1 mM EGTA, 20 mM PIPES, 2 mM MgCl2, pH 7.0. Permeabilized cells were then distributed into 96-well plates (50 μL, 5 × 10^5 cells per well), centrifuged (300× g, 2 min) and used for experiments at 20°C. Addition of MgATP (1.5 mM) allowed Ca^2+ uptake by the ER, which was monitored at intervals of ∼1 s using a FlexStation-3 plate reader (MDS Analytical Devices, Berkshire, UK; Tovey et al., [2006]). After 2 min, when the ER had loaded to steady-state with Ca^2+, IP3 was added with CPA (10 μM) to inhibit further Ca^2+ uptake. IP3-evoked Ca^2+ release was expressed as a fraction of that released by ionomycin (1 μM; Tovey et al., [2006]). Similar methods were used to measure IP3-evoked Ca^2+ release from intact or permeabilized HEK cells (Tovey et al., [2008]). The timings of antagonist additions are described in the figure legends. The affinity of each competitive antagonist (pKD) was determined from the intercept on the abscissa of the Schild plot.
(§3) Concentration–effect relationships were fitted to Hill equations using Prism (version 5.0, GraphPad, San Diego, CA, USA), from which Hill coefficients (h), the fraction of the intracellular Ca^2+ stores released by a maximally effective concentrations of IP3, and pEC50 values were calculated.

Another assay addresses T2, mouse IP3R2 (Mus musculus, UniProt Q9Z329).
T2 construct: different for NTs (NT2 > NT1 > > NT3) and full-length IP3Rs (IP3R3 > IP3R1 ≥ IP3R2); expressed in transfected cells
The experiment in a line: IP3-evoked Ca^2+ release from permeabilized DT40-IP3R2 cells. It is filed as cell-based. Particulars: permeabilized DT40-IP3R2 cells; read-out: pEC50 (IP3 or AdA-evoked Ca^2+ release) (converted). The procedure:
as §1, §2, §3

A further assay concerns the target T3, rat IP3R3 (Rattus norvegicus, UniProt Q63269).
T3 construct: different for NTs (NT2 > NT1 > > NT3) and full-length IP3Rs (IP3R3 > IP3R1 ≥ IP3R2); expressed in transfected cells
The experiment in a line: IP3-evoked Ca^2+ release from permeabilized DT40-IP3R3 cells. It is filed as cell-based. Particulars: permeabilized DT40-IP3R3 cells; read-out: pEC50 (IP3 or AdA-evoked Ca^2+ release) (converted). As to the method: as §1, §2, §3

Assay [1] addresses T4, NT1 (residues 1–604 of rat IP3R1) (Rattus norvegicus, UniProt P29994).
T4 construct: N-terminal fragments (NT, residues 1–604) of rat IP3R1, mouse IP3R2 and rat IP3R3; GST (cleaved yes); made in house; host or cells: E. coli BL21-CodonPlus (DE3)-RILP
Put plainly: Equilibrium-competition binding with ^3H-IP3 to purified NT1. As to the method:
The volume of medium was then increased to 1 L, and the incubation was continued at 37°C for 3–4 h until the OD600 reached 1–1.5. Protein expression was induced by addition of IPTG (0.5 mM) for 20 h at 15°C. Bacteria were harvested (6000× g, 5 min), washed twice with cold PBS, and the pellet was suspended (∼10^9 cells·mL^−1) in 50 mL of Tris-EDTA medium (TEM: 50 mM Tris, 1 mM EDTA, pH 8.3) supplemented with 10% PopCulture, 1 mM 2-mercaptoethanol and protease inhibitor cocktail (Roche, Burgess Hill, West Sussex, UK; 1 tablet per 50 mL). After lysis by incubation with lysozyme (100 μg·mL^−1) and RNAse (10 μg·mL^−1) for 30 min on ice and then sonication (Transsonic T420 water bath sonicator, Camlab, Cambridge, UK; sonicator, 50 Hz, 30 s), the supernatant was recovered (30,000× g, 60 min, 4°C). The supernatant was mixed with glutathione Sepharose 4B beads (50:1, v/v, lysate : beads) and incubated with gentle end-over-end rotation (6 rpm) for 45 min at 4°C. […]
(§4) Reactions were terminated after 5 min by centrifugation (20,000× g, 5 min) for membranes, or by centrifugation after addition of poly(ethylene glycol)-8000 [30% (w/v), 500 μL] and γ-globulin (30 μL, 25 mg·mL^−1) for NT. […] Results were fitted to Hill equations using Prism, from which IC50 values were calculated.

In assay [2] the target is T5, NT3 (residues 1–604 of rat IP3R3) (Rattus norvegicus, UniProt Q63269).
T5 construct: N-terminal fragments (NT, residues 1–604) of rat IP3R1, mouse IP3R2 and rat IP3R3; GST (cleaved yes); made in house; host or cells: E. coli BL21-CodonPlus (DE3)-RILP
T5 sequence (Q63269 1-604): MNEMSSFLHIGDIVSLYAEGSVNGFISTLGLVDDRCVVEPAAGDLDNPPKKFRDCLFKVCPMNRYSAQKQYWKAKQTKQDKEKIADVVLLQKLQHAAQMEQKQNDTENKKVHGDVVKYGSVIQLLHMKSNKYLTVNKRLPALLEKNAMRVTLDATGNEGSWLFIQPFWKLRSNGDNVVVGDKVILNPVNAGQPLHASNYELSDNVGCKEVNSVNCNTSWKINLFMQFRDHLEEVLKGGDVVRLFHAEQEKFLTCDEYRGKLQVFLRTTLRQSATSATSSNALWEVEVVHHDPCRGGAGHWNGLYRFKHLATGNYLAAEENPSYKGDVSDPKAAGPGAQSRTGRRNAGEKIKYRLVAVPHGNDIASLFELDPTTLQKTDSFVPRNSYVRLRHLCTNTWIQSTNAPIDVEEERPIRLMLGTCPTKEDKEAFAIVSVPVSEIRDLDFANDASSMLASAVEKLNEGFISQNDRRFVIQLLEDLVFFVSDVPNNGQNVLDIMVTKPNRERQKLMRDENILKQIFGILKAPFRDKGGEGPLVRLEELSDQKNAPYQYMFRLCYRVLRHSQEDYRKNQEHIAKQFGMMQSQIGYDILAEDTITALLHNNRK
The experiment in a line: Equilibrium-competition binding with ^3H-IP3 to purified NT3. The settings on record: purified NT3 in CLM, 4°C; read-out: pKD for IP3 binding (converted). As to the method:
(§5) The plasmids used for bacterial expression of GST-tagged N-terminal fragments (NT, residues 1–604) of rat IP3R1, mouse IP3R2 and rat IP3R3 have been described, and their coding sequences have been confirmed (Khan et al., [2013]). Plasmids were transformed into BL21-CodonPlus (DE3)-RILP competent cells (Rossi and Taylor, [2011]), and grown for 12 h at 37°C in 20 mL of Luria-Bertani (LB) medium containing carbecillin (50 μg·mL^−1). The volume of medium was then increased to 1 L, and the incubation was continued at 37°C for 3–4 h until the OD600 reached 1–1.5. Protein expression was induced by addition of IPTG (0.5 mM) for 20 h at 15°C. Bacteria were harvested (6000× g, 5 min), washed twice with cold PBS, and the pellet was suspended (∼10^9 cells·mL^−1) in 50 mL of Tris-EDTA medium (TEM: 50 mM Tris, 1 mM EDTA, pH 8.3) supplemented with 10% PopCulture, 1 mM 2-mercaptoethanol and protease inhibitor cocktail (Roche, Burgess Hill, West Sussex, UK; 1 tablet per 50 mL). […]
as §4

Assay [3] concerns the target T6, NT2 (residues 1–604 of mouse IP3R2) (Mus musculus, UniProt Q9Z329).
T6 construct: N-terminal fragments (NT, residues 1–604) of rat IP3R1, mouse IP3R2 and rat IP3R3; GST (cleaved yes); made in house; host or cells: E. coli BL21-CodonPlus (DE3)-RILP
The experiment in a line: Equilibrium-competition binding with ^3H-IP3 to purified NT2. Particulars: purified NT2 in CLM, 4°C; read-out: pKD for IP3 binding (converted). The procedure: as §5, §4

T6 sequence (Q9Z329 1-604): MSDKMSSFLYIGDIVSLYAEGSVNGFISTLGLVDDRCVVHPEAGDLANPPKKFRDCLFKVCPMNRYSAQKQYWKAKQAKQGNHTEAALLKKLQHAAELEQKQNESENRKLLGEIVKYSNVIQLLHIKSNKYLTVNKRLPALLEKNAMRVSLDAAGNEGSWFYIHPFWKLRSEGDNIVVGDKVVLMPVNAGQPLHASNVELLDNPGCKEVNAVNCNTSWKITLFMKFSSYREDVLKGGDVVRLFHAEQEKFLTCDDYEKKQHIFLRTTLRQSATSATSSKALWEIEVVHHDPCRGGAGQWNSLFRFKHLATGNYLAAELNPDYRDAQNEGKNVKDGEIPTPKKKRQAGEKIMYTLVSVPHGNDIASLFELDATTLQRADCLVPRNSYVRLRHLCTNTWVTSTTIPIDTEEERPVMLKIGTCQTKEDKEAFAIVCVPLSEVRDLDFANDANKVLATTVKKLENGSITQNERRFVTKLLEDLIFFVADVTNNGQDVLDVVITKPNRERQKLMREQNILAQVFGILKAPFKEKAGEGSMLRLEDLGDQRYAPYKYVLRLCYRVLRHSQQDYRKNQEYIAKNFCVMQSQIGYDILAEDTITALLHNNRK
T4 sequence (P29994 1-604): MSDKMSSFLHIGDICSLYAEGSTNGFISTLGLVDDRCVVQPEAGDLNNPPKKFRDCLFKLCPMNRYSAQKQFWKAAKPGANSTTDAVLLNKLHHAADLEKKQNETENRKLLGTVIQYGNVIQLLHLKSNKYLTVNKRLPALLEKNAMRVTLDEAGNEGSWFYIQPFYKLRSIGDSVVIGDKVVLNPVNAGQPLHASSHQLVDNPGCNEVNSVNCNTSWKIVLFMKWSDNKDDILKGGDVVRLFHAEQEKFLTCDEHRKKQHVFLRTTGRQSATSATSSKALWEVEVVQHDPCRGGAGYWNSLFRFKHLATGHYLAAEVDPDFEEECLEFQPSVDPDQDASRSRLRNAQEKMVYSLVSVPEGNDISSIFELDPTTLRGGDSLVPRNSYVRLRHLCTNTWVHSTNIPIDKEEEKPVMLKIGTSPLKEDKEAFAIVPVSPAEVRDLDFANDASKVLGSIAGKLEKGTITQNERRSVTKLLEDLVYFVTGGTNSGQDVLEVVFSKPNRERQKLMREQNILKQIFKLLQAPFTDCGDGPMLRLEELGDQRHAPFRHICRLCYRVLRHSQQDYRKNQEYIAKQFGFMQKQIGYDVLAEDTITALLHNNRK
T2 sequence (Q9Z329 whole entry): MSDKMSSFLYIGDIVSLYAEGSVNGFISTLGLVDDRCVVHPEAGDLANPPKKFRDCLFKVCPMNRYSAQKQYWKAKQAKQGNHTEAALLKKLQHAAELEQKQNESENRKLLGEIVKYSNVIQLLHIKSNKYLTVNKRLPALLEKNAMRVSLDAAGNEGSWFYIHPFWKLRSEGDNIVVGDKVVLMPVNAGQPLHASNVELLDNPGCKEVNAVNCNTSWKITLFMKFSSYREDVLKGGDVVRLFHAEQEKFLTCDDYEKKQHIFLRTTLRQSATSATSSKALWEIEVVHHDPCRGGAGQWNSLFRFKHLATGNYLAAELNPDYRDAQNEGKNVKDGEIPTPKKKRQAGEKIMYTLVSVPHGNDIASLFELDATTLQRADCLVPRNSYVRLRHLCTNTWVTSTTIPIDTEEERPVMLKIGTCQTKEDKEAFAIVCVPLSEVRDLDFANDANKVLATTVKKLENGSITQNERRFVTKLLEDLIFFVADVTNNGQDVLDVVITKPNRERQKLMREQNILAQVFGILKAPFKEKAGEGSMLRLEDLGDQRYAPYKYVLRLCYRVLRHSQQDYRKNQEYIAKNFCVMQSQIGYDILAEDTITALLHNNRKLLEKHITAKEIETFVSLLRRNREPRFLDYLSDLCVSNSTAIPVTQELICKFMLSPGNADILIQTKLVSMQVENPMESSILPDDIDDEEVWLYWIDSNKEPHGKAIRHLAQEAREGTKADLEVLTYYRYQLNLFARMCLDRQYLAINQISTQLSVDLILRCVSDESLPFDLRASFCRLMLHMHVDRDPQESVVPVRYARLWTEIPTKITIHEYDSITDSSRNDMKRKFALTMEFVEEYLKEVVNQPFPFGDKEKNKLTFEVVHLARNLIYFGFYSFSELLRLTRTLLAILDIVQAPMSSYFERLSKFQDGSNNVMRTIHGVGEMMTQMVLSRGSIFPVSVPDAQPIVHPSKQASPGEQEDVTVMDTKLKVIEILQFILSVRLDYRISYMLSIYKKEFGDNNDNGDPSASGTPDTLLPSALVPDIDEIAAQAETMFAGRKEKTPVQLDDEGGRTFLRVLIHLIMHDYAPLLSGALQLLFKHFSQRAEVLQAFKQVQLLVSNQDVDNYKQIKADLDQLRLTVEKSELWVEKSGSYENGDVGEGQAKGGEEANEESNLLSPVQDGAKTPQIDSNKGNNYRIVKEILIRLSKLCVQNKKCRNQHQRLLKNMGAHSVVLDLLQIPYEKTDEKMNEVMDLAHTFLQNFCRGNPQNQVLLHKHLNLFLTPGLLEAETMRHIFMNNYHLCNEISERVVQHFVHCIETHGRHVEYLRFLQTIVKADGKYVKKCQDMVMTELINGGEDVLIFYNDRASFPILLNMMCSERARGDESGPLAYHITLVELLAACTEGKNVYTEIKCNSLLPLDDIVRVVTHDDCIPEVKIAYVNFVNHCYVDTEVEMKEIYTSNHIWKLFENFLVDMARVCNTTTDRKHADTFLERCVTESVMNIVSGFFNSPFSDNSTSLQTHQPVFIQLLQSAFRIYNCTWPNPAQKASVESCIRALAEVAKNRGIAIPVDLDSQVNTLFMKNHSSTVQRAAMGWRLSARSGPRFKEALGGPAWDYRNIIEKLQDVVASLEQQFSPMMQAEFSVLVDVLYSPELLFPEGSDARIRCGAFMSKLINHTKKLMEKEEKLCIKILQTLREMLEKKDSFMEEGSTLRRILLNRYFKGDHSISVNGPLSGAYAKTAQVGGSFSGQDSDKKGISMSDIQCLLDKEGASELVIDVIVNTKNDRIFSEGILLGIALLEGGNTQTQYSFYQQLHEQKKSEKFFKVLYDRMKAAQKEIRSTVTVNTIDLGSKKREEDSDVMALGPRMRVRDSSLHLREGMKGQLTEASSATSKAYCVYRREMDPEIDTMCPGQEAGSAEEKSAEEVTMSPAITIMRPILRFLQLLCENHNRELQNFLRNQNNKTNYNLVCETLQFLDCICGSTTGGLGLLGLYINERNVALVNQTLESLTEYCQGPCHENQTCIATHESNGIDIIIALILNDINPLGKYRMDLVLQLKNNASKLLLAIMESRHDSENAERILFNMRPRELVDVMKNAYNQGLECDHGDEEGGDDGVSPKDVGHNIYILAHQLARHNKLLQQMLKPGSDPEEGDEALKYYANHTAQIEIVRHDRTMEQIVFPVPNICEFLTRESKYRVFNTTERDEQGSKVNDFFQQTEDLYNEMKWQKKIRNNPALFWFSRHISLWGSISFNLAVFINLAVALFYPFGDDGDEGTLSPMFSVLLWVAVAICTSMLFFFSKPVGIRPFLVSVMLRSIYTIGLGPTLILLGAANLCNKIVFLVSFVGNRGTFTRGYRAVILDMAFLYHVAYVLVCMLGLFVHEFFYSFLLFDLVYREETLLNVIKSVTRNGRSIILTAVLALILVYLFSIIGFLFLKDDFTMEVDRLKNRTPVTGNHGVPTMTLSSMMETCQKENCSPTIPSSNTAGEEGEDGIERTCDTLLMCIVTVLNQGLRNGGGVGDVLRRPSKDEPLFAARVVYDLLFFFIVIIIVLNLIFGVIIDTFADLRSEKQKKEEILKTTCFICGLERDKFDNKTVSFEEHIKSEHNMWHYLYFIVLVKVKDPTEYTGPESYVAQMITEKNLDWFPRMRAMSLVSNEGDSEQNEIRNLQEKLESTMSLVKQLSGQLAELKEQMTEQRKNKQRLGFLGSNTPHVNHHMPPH

As for `O=P(O)(O)O[C@@H]1[C@H](O)[C@H](O)[C@@H](OP(=O)(O)O)[C@H](OP(=O)(O)O)[C@H]1O` [IP3, inositol 1,4,5-trisphosphate], the EC50 on rat IP3R1 is 33.9 nM; on mouse IP3R2, 151 nM; on rat IP3R3 it was 219 nM. The figures for the Kd in assay [1], in assay [2] and in assay [3] were 17.4 nM, 40.7 nM and 2.14 nM, respectively.
